Reference: ChEMBL document CHEMBL1201862, “PubChem BioAssay data set” (2004)
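Where inhibition never reached the appropriate level, the endpoint shown equals the highest concentration tested. Otherwise, values were interpolated linearly from a five-concentration, 48-hour dose response in 96-well plates. Abbreviation: GI50, concentration required for 50% inhibition of growth.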 Activity calls are given as the source filed them. Cut-off read from the data, not from the text of the source: active = GI50 up to about 1.1 µM and inactive = higher.

How the values were obtained:
Experiment in all cases: NCI anticancer screen, dose series, 48 h
NCI-H226 = tested on: NCI-H226
IGROV-1 = tested on: IGROV-1
HCT-116 = tested on: HCT-116
ACHN = tested on: ACHN
Malme-3M = tested on: Malme-3M
HL-60 = tested on: HL-60
HOP-18 = tested on: HOP-18
SF-268 = tested on: SF-268
A549 = tested on: A549
DLD-1 = tested on: DLD-1
CCRF-CEM = tested on: CCRF-CEM
OVCAR-8 = tested on: OVCAR-8
DMS-114 = tested on: DMS-114
KM-20L2 = tested on: KM-20L2
SW-620 = tested on: SW-620
LOX IMVI = tested on: LOX IMVI
CAKI-1 = tested on: CAKI-1
NCI-H460 = tested on: NCI-H460
HCT-15 = tested on: HCT-15
NCI-H23 = tested on: NCI-H23
M14 = tested on: M14
SNB-75 = tested on: SNB-75
UO-31 = tested on: UO-31
A498 = tested on: A498
KM12 = tested on: KM12
UACC-62 = tested on: UACC-62
HOP-62 = tested on: HOP-62
NCI-H522 = tested on: NCI-H522
LXFL 529 = tested on: LXFL 529
HCC 2998 = tested on: HCC 2998
OVCAR-5 = tested on: OVCAR-5
OVCAR-4 = tested on: OVCAR-4
SK-MEL-28 = tested on: SK-MEL-28
EKVX = tested on: EKVX
SNB-78 = tested on: SNB-78
SK-OV-3 = tested on: SK-OV-3
DMS-273 = tested on: DMS-273
RXF 393 = tested on: RXF 393
UACC-257 = tested on: UACC-257
U-251 = tested on: U-251
OVCAR-3 = tested on: OVCAR-3
SK-MEL-5 = tested on: SK-MEL-5
COLO 205 = tested on: COLO 205
M19-MEL = tested on: M19-MEL
SNB-19 = tested on: SNB-19
XF498 = tested on: XF498
HT-29 = tested on: HT-29
SN12C = tested on: SN12C
K562 = tested on: K562
SF-539 = tested on: SF-539
TK-10 = tested on: TK-10
SF-295 = tested on: SF-295
786-0 = tested on: 786-0
MOLT-4 = tested on: MOLT-4
SK-MEL-2 = tested on: SK-MEL-2

CC(C)=CC(=O)N(C)C1C2CN3CCC(O2)C13 (stereo not given)
GI50 (NCI-H226): > 100 µM (inactive) | GI50 (IGROV-1): > 100 µM (inactive) | GI50 (HCT-116): > 100 µM (inactive) | GI50 (ACHN): > 100 µM (inactive) | GI50 (Malme-3M): > 100 µM (inactive) | GI50 (HL-60): > 100 µM (inactive) | GI50 (HOP-18): > 100 µM (inactive) | GI50 (SF-268): > 100 µM (inactive) | GI50 (A549): > 100 µM (inactive) | GI50 (DLD-1): > 100 µM (inactive) | GI50 (CCRF-CEM): > 100 µM (inactive) | GI50 (OVCAR-8): > 100 µM (inactive) | GI50 (DMS-114): > 100 µM (inactive) | GI50 (KM-20L2): > 100 µM (inactive) | GI50 (SW-620): > 100 µM (inactive) | GI50 (LOX IMVI): > 100 µM (inactive) | GI50 (CAKI-1): > 100 µM (inactive) | GI50 (NCI-H460): > 100 µM (inactive) | GI50 (HCT-15): > 100 µM | GI50 (NCI-H23): > 100 µM (inactive) | GI50 (M14): > 100 µM (inactive) | GI50 (SNB-75): > 100 µM (inactive) | GI50 (UO-31): > 100 µM (inactive) | GI50 (A498): > 100 µM (inactive) | GI50 (KM12): > 100 µM (inactive) | GI50 (UACC-62): > 100 µM (inactive) | GI50 (HOP-62): > 100 µM (inactive) | GI50 (NCI-H522): > 100 µM (inactive) | GI50 (LXFL 529): > 100 µM (inactive) | GI50 (HCC 2998): > 100 µM (inactive) | GI50 (OVCAR-5): > 100 µM (inactive) | GI50 (OVCAR-4): > 100 µM (inactive) | GI50 (SK-MEL-28): > 100 µM (inactive) | GI50 (EKVX): > 100 µM (inactive) | GI50 (SNB-78): > 100 µM (inactive) | GI50 (SK-OV-3): > 100 µM (inactive) | GI50 (DMS-273): > 100 µM (inactive) | GI50 (RXF 393): > 100 µM (inactive) | GI50 (UACC-257): > 100 µM (inactive) | GI50 (U-251): > 100 µM (inactive) | GI50 (OVCAR-3): > 100 µM (inactive) | GI50 (SK-MEL-5): > 100 µM (inactive) | GI50 (COLO 205): > 100 µM (inactive) | GI50 (M19-MEL): > 100 µM (inactive) | GI50 (SNB-19): > 100 µM (inactive) | GI50 (XF498): > 100 µM (inactive) | GI50 (HT-29): > 100 µM (inactive) | GI50 (SN12C): > 100 µM (inactive) | GI50 (K562): > 100 µM (inactive) | GI50 (SF-539): > 100 µM (inactive) | GI50 (TK-10): > 100 µM (inactive) | GI50 (SF-295): > 100 µM (inactive) | GI50 (786-0): > 100 µM (inactive) | GI50 (MOLT-4): > 100 µM (inactive) | GI50 (SK-MEL-2): > 100 µM (inactive)
